Measurements: US20240246954A1, “COMPOSITIONS AND METHODS FOR INHIBITING KRAS” (TheRas, Inc., priority 2021, published 2024)
pIC50: −log10 of the molar value.

Experiments:
[1] = molecular target: T1, Avi-KRAS G12D/Q25A (1-169) GppNHp/3×FLAG-PI3KCA (157-299) (Homo sapiens, UniProt P01116, G12D/Q25A); test: HTRF PI3KCA-KRAS G12D/Q25A-GppNHp disruption assay; type: biochemical; details: 1 h incubation
T1 construct: Avi-KRAS G12D/Q25A (1-169) GppNHp
Outline: (§1)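 HTRF read-out (320 nm excitation, 615 nm emission) after two 1 h room-temperature incubations, first with protein mix, then detection reagents. Ten-point dilution series starting at 100 μM; results given as % activity relative to DMSO at 100%.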

[2] = tested on: pERK in GP2d cells (KRAS G12D); test: Cell-based pERK HTRF assay; details: GP2d, 1 h, 60 min incubation
Experimental: Biological Example 3. Cell-Based pERK HTRF Assay
pERK assay (Perkin Elmer) was used to determine the effectiveness of compounds in disrupting KRAS G12D protein/effector signaling in cells.
On Day 1, cells (GP2d) were seeded into 96-well plates at 3×10^4 cells/well in 80 μl complete growth media (DMEM, 10% FBS).
On Day 2, cells were treated with compounds at 0.25% DMSO. The source plate was created with compounds diluted in media at 5-fold the final assay concentration. The compounds were run in a 9-point concentration curve starting at 1 μM, with a half-log dilution between concentrations. 20 μL was transferred onto the cell plates (final volume in wells was 100 μL). Plates were harvested after 60 min incubation by aspirating media and adding kit-supplied 1× supplemented lysis buffer to all wells (50 μl per well). Plates were then placed on a plate shaker and incubated at 850 rpm for an additional 30 min.
Antibody mixture solution is prepared by diluting aliquoted d2 and Eu Cryptate antibodies 1:20 in kit supplied detection buffer, mix the diluted antibodies solutions (1:1 v:v). Four μL of this solution is then added to a 384-well detection plate (Perkin Elmer; 6008230).
Samples were homogenized by pipetting up and down and then transferred (16 μL of cell lysates) from the 96-well cell culture plate to two wells of the HTRF 384-well detection plate containing the antibody solution. Plates were centrifuged (524 g for 1 min) and allowed to incubate between 4 and 24 h at room temperature. Maximum signal is reached after 4 h incubation time and remains stable over a period of 24 hours. Therefore, readings can be made between 4 and 24 h of incubation. Plates were centrifuged again (524 g for 1 min), then analyzed on the EnVision plate reader using the following settings: Excitation 320 nm, Bandwidth 75 nm; Emission 615 nm, Bandwidth 85 nm; Gain 100%; Flashes 100; Lag 60 μs.

[3] = molecular target: T2, Avi-KRAS G12D (1-169) GppNHp/RAF1 RBD-3×FLAG (52-151) (Homo sapiens, UniProt P01116, G12D); test: HTRF Raf1-KRAS G12D-GppNHp disruption assay; type: biochemical; details: 1 h incubation
T2 construct: Avi-KRAS G12D (1-169) GppNHp
T2 sequence (P01116 1-169 isoform P01116-2 G12D limits assumed): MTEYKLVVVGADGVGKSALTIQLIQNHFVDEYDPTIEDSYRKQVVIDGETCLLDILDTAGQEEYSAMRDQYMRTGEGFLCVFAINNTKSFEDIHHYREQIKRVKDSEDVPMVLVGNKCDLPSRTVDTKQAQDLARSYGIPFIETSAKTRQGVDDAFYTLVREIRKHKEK
Outline: as §1

T1 sequence (P01116 1-169 isoform P01116-2 G12D/Q25A limits assumed): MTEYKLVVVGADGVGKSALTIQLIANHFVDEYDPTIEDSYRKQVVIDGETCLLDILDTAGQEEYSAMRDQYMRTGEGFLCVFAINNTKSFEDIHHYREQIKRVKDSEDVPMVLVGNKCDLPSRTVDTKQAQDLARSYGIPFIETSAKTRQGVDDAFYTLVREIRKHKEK

| SMILES | pIC50 [1] | pIC50 [2] | pIC50 [3] |
| --- | --- | --- | --- |
| Nc1nc2c(-c3c(C(F)(F)F)cc4c(NC5CNC5)nc(OCC56CCCN5CCC6)nc4c3F)ccc(F)c2o1 [Compound 199] | 5.00 to 6.00 | < 6.00 | 6.00 to 7.00 |
| C[C@@H]1CN(c2nc(OC[C@@]34CCCN3C[C@H](F)C4)nc3c(F)c(-c4ccc(F)c5sc(N)nc45)c(C(F)(F)F)cc23)[C@@H](C)CN1 [Compound 207] | 5.00 to 6.00 | ≥ 7.00 | 6.00 to 7.00 |
| Nc1nc2c(-c3c(C(F)(F)F)cc4c(N5CC6CCC(C5)N6)nc(OC[C@@]56CCCN5C[C@H](F)C6)nc4c3F)ccc(F)c2o1 [Compound 220, 4-(4-(3,8-diazabicyclo[3.2.1]octan-3-yl)-8-fluoro-2-(((2R,7aS)-2-fluorotetrahydro-1H-pyrrolizin-7a(5H)-yl)methoxy)-6-(trifluoromethyl)quinazolin-7-yl)-7-fluorobenzo[d]oxazol-2-amine] | 6.00 to 7.00 | ≥ 7.00 | 6.00 to 7.00 |
| Nc1nc2c(-c3c(C(F)(F)F)cc4c(N5CC6CCC5CN6)nc(OC[C@@]56CCCN5C[C@H](F)C6)nc4c3F)ccc(F)c2s1 (stereo partly drawn) [Compound 223] | 6.00 to 7.00 | ≥ 7.00 | 6.00 to 7.00 |
| Nc1nc2c(-c3c(C(F)(F)F)cc4c(N5CC6CC5CN6)nc(OC[C@@]56CCCN5C[C@H](F)C6)nc4c3F)ccc(F)c2s1 (stereo partly drawn) [Compound 226] | 6.00 to 7.00 | ≥ 7.00 | 6.00 to 7.00 |
| Nc1nc2c(-c3c(OC(F)(F)F)cc4c(N5CC6CCC(C5)N6)nc(OC[C@@]56CCCN5C[C@H](F)C6)nc4c3F)ccc(F)c2s1 [Compound 232] | 4.52 to 5.00 | ≥ 7.00 | 6.00 to 7.00 |
| Nc1nc2c(-c3c(C(F)(F)F)cc4c(NC5CNC5)nc(OC[C@@]56CCCN5C[C@H](F)C6)nc4c3F)ccc(F)c2s1 [Compound 247] | 6.00 to 7.00 | < 6.00 | 6.00 to 7.00 |
| Nc1nc2c(-c3c(C(F)(F)F)cc4c(N5C[C@H]6CC[C@@H](C5)N6)nc(OCC5(CN6CCOCC6)CC5)nc4c3F)ccc(F)c2s1 [Compound 251, 4-(4-((1R,5S)-3,8-diazabicyclo[3.2.1]octan-3-yl)-8-fluoro-2-((1-(morpholinomethyl)cyclopropyl)methoxy)-6-(trifluoromethyl)quinazolin-7-yl)-7-fluorobenzo[d]thiazol-2-amine] | 5.00 to 6.00 | ≥ 7.00 | 6.00 to 7.00 |
| Nc1nc2c(-c3c(C(F)(F)F)cc4c(N5CC6CCC(C5)N6)nc(OCC5(CN6CC[C@@H](F)C6)CC5)nc4c3F)ccc(F)c2s1 [Compound 252] | 6.00 to 7.00 | ≥ 7.00 | 6.00 to 7.00 |
| Nc1nc2c(-c3c(C(F)(F)F)cc4c(N5C[C@H]6CC[C@@H](C5)N6)nc(OC[C@@]56CCCN5C[C@H](F)C6)nc4c3Cl)ccc(F)c2s1 [Compound 256, 4-(4-((1R,5S)-3,8-diazabicyclo[3.2.1]octan-3-yl)-8-chloro-2-(((2R,7aS)-2-fluorotetrahydro-1H-pyrrolizin-7a(5H)-yl)methoxy)-6-(trifluoromethyl)quinazolin-7-yl)-7-fluorobenzo[d]thiazol-2-amine] | 6.00 to 7.00 | ≥ 7.00 | 6.00 to 7.00 |
| N#Cc1cc2c(N3CC4CCC(C3)N4)nc(OC[C@@]34CCCN3C[C@H](F)C4)nc2c(F)c1-c1ccc(F)c2sc(N)nc12 [Compound 258] | 6.00 to 7.00 | ≥ 7.00 | 6.00 to 7.00 |
| CO[C@H]1CN2CCC[C@@]2(COc2nc(N3CC4CCC(C3)N4)c3cc(C(F)(F)F)c(-c4ccc(F)c5sc(N)nc45)c(F)c3n2)C1 [Compound 261] | 6.00 to 7.00 | ≥ 7.00 | 6.00 to 7.00 |
| Nc1nc2c(-c3c(C(F)(F)F)cc4c(NC5CC6CC[C@H](C5)N6)nc(OCC56CCCN5CCC6)nc4c3F)ccc(F)c2s1 (stereo partly drawn) [Compound 264] | 6.00 to 7.00 | < 6.00 | 6.00 to 7.00 |
| CN(c1nc(OCC23CCCN2CCC3)nc2c(F)c(-c3ccc(F)c4sc(N)nc34)c(C(F)(F)F)cc12)C12CC(N)(C1)C2 [Compound 274] | 6.00 to 7.00 | 6.00 to 7.00 | 6.00 to 7.00 |
| CN1C[C@H](F)C[C@H]1COc1nc(N2CC3CCC(C2)N3)c2cc(C(F)(F)F)c(-c3ccc(F)c4sc(N)nc34)c(F)c2n1 [Compound 275] | 5.00 to 6.00 | ≥ 7.00 | 5.00 to 6.00 |
| C[C@@H]1C[C@@H](N(C)c2nc(OC[C@@]34CCCN3C[C@H](F)C4)nc3c(F)c(-c4ccc(F)c5sc(N)nc45)c(C(F)(F)F)cc23)CN1 [Compound 283] | 6.00 to 7.00 | 6.00 to 7.00 | 6.00 to 7.00 |
| CO[C@H]1CN2CCC[C@]2(COc2nc(N3CC4CCC(C3)N4)c3cc(C(F)(F)F)c(-c4ccc(F)c5sc(N)nc45)c(F)c3n2)C1 [Compound 285] | 6.00 to 7.00 | ≥ 7.00 | 6.00 to 7.00 |
| CN(c1nc(OC[C@@]23CCCN2C[C@H](F)C3)nc2c(F)c(-c3ccc(F)c4sc(N)nc34)c(C(F)(F)F)cc12)[C@@H]1CNCC1(C)C [Compound 293] | 6.00 to 7.00 | 6.00 to 7.00 | 6.00 to 7.00 |
| CN(c1nc(OCC2(CN3CCOCC3)CC2)nc2c(F)c(-c3ccc(F)c4sc(N)nc34)c(C(F)(F)F)cc12)[C@@H]1CCNC1 [Compound 296] | 5.00 to 6.00 | ≥ 7.00 | 6.00 to 7.00 |
| CN(c1nc(OCC2(CN3CC[C@@H](F)C3)CC2)nc2c(F)c(-c3ccc(F)c4sc(N)nc34)c(C(F)(F)F)cc12)[C@@H]1CCNC1 [Compound 297] | 5.00 to 6.00 | 6.00 to 7.00 | 6.00 to 7.00 |
| Nc1nc2c(-c3c(C(F)(F)F)cc4c(N5CC6CCCC(C5)N6)nc(OC[C@@]56CCCN5C[C@H](F)C6)nc4c3F)ccc(F)c2s1 [Compound 299] | 6.00 to 7.00 | ≥ 7.00 | 6.00 to 7.00 |
| Nc1nc2c(-c3c(C(F)(F)F)cc4c(N5CC6COCC(C5)N6)nc(OC[C@@]56CCCN5C[C@H](F)C6)nc4c3F)ccc(F)c2s1 [Compound 300] | 6.00 to 7.00 | 6.00 to 7.00 | 6.00 to 7.00 |
| CN(c1nc(OCC23CCCN2CCC3)nc2c(F)c(-c3ccc(F)c4sc(N)nc34)c(C(F)(F)F)cc12)[C@H]1CC[C@H](N)CC1 [Compound 304] | 5.00 to 6.00 | < 6.00 | 5.00 to 6.00 |
| C[C@H]1CNC[C@@H]1N(C)c1nc(OC[C@@]23CCCN2C[C@H](F)C3)nc2c(F)c(-c3ccc(F)c4sc(N)nc34)c(C(F)(F)F)cc12 [Compound 309] | 5.00 to 6.00 | 6.00 to 7.00 | 5.00 to 6.00 |
| C[C@H]1C[C@@H](N(C)c2nc(OC[C@@]34CCCN3C[C@H](F)C4)nc3c(F)c(-c4ccc(F)c5sc(N)nc45)c(C(F)(F)F)cc23)CN1 [Compound 311] | 4.52 to 5.00 | ≥ 7.00 | 6.00 to 7.00 |
| CN(c1nc(OC[C@@]23CCCN2C[C@H](F)C3)nc2c(F)c(-c3ccc(F)c4sc(N)nc34)c(C(F)(F)F)cc12)[C@H]1CNCC12CC2 [Compound 312] | 4.52 to 5.00 | 6.00 to 7.00 | 5.00 to 6.00 |
| Nc1nc2c(-c3cc4nc(OC[C@@]56CCCN5C[C@H](F)C6)nc(N5CC6CCC(C5)N6)c4cc3C(F)(F)F)ccc(F)c2s1 [Compound 313] | 5.00 to 6.00 | ≥ 7.00 | 6.00 to 7.00 |
| CN(c1nc(OC[C@@]23CCCN2C[C@H](F)C3)nc2c(Cl)c(-c3ccc(F)c4sc(N)nc34)c(C(F)(F)F)cc12)[C@@H]1CCNC1 [Compound 314] | 5.00 to 6.00 | 6.00 to 7.00 | 6.00 to 7.00 |
